From patent US8536187B2 (Gilead Sciences, Inc., priority 2008, dated 2013)

Legend:
[1] = CC50 assay (CellTiter-Glo) in Huh-7 HCV replicon cells; format: cell-based; settings: human, Table 2, 3 days incubation
Summary of the method: (§1)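 Huh-7 cells carrying HCV replicon (6000/well) incubated with serially diluted compound, 0.5% DMSO final, 3 days at 37° C, 5% CO2. EC50 from luciferase luminescence after 30 min lysis/substrate at room temperature; CC50 from CellTiter-Glo luminescence after 10 min at room temperature.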

[2] = system: HCV replicon in human hepatoma Huh-7 cell line; experiment: Anti-HCV replicon assay, EC50 (luciferase luminescence); format: cell-based; settings: Hepatitis C virus, Huh-7, 72 h
Summary of the method: as §1

SMILES | CC50 at 3 days [1] [nM] | EC50 [2] [nM]
C[C@@H](Cn1cncn1)Nc1nc(NCC(F)(F)F)c2nc(-c3cccc(S(C)(=O)=O)c3)ccc2n1 [Example 169, N^2-((S)-1-(1H-1,2,4-triazol-1-yl)propan-2-yl)-6-(3-(methylsulfonyl)phenyl)-N^4-(2,2,2-trifluoroethyl)pyrido [3,2-d]pyrimidine-2,4-diamine] | > 10000 | 250 to 2000
CS(=O)(=O)c1cccc(-c2ccc3nc(NCc4ccc(-n5cncn5)cc4)nc(NCC(F)(F)F)c3n2)c1 [Example 163, N^2-(4-(1H-1,2,4-triazol-1-yl)benzyl)-6-(3-(methylsulfonyl)phenyl)-N^4-(2,2,2-trifluoroethyl) pyrido[3,2-d]pyrimidine-2,4-diamine] | > 10000 | < 100
NS(=O)(=O)c1ccc(CNc2nc(NC3(C(F)(F)F)CC3)c3nc(-c4ccc(F)cc4)ccc3n2)c(Cl)c1 [Example 43, 3-chloro-4-((6-(4-fluorophenyl)-4-(1-(trifluoromethyl)cyclopropyl-amino)pyrido[3,2-d]pyrimidin-2-ylamino)methyl)benzene-sulfonamide] | > 10000 | 250 to 2000
CC(C)(C)NS(=O)(=O)c1cc(F)cc(CNc2nc(NC3(C(F)(F)F)CC3)c3nc(-c4ccc(Cl)c(S(C)(=O)=O)c4)ccc3n2)c1 [Example 38, N-tert-butyl-3-((6-(4-chloro-3-(methylsulfonyl)phenyl)-4-(1-(trifluoromethyl)cyclopropyl-amino)pyrido[3,2-d]pyrimidin-2-ylamino)methyl)-5-fluorobenzenesulfonamide] | > 10000 | < 100
C#Cc1ccc2nc(NCc3ccc(S(N)(=O)=O)cc3)nc(N[C@@H](C)C(F)(F)F)c2n1 [Example 289, (S)-4-((6-ethynyl-4-(1,1,1-trifluoropropan-2-ylamino)pyrido[3,2-d]pyrimidin-2-ylamino)methyl)benzene-sulfonamide] | 1000 to 10000 | < 100
C=Cc1ccc2nc(NCc3cc(Cl)cc(S(N)(=O)=O)c3)nc(OC3(C)CC3)c2n1 [Example 303, 3-chloro-5-((4-(1-methylcyclo-propoxy)-6-vinylpyrido[3,2-d]pyrimidin-2-ylamino)methyl) benzenesulfonamide] | > 10000 | 100 to 250
Cc1nc(C)n(-c2ccc(CNc3nc(OC4(C)CC4)c4nc(-c5ccc(OC(F)F)c(S(C)(=O)=O)c5)ccc4n3)cc2)n1 [Example 205, N-(4-(3,5-dimethyl-1H-1,2,4-triazol-1-yl)benzyl)-6-(4-(difluoromethoxy)-3-(methylsulfonyl)phenyl)-4-(1-methylcyclopropoxy)pyrido [3,2-d]pyrimidin-2-amine] | > 10000 | < 100
CCOc1ccc(-c2ccc3nc(NCc4ccc(-n5cncn5)cc4)nc(NC4(C(F)(F)F)CC4)c3n2)cn1 [Example 52, N^2-(4-(1H-1,2,4-triazol-1-yl)benzyl)-6-(6-ethoxypyridin-3-yl)-N^4-(1-(trifluoromethyl)cyclopropyl)pyrido[3,2-d] pyrimidine-2,4-diamine] | 1000 to 10000 | < 100
CCOc1ccc(-c2ccc3nc(NCc4ccc(-n5cncn5)cc4)nc(NCC(F)(F)F)c3n2)cn1 [Example 229, N^2-(4-(1H-1,2,4-triazol-1-yl)benzyl)-6-(6-ethoxypyridin-3-yl)-N^4-(2,2,2-trifluoroethyl) pyrido[3,2-d]pyrimidine-2,4-diamine] | > 10000 | < 100
CC(Cn1cncn1)Nc1nc(NC2(C(F)(F)F)CC2)c2nc(-c3ccc(N)nc3)ccc2n1 (stereo not shown) [Example 31, 6-(6-amino-pyridin-3-yl)-N2-(1-methyl-2-[1,2,4]triazol-1-yl-ethyl)-N4-(1-trifluoromethyl-cyclopropyl)-pyrido[3,2-d]pyrimidine-2,4-diamine] | > 10000 | < 100
NS(=O)(=O)c1cc(F)cc(CNc2nc(NC3(C(F)(F)F)CC3)c3nc(-c4ccc(F)cc4)ccc3n2)c1 [Example 115, 3-fluoro-5-((6-(4-fluorophenyl)-4-(1-(trifluoromethyl)cyclopropyl-amino)pyrido[3,2-d]pyrimidin-2-ylamino)methyl)benzene-sulfonamide] | 1000 to 10000 | < 100
NS(=O)(=O)c1cc(Cl)cc(CNc2nc(NC3(C(F)(F)F)CC3)c3nc(-c4ccc(F)cc4)ccc3n2)c1 [Example 27, 3-chloro-5-{[6-(4-fluorophenyl)-4-(1-trifluoromethyl-cyclopropylamino)-pyrido[3,2-d]pyrimidin-2-ylamino]-methyl}-benzenesulfonamide] | > 10000 | 100 to 250
COc1ccc(-c2ccc3nc(NCc4cccc(-n5cccn5)c4)nc(NCC(F)(F)F)c3n2)cc1S(C)(=O)=O [Example 140, N^2-(3-(1H-pyrazol-1-yl)benzyl)-6-(4-methoxy-3-(methylsulfonyl)phenyl)-N^4-(2,2,2-trifluoroethyl)pyrido [3,2-d]pyrimidine-2,4-diamine] | 1000 to 10000 | < 100
CS(=O)(=O)c1cccc(-c2ccc3nc(NCc4ccc(-n5cncn5)cc4)nc(OC4CCC4)c3n2)c1 [Example 202, N-(4-(1H-1,2,4-triazol-1-yl)benzyl)-4-cyclobutoxy-6-(3-(methylsulfonyl)phenyl)pyrido [3,2-d]pyrimidin-2-amine] | > 10000 | < 100
CC1(Oc2nc(NCc3ccc(-n4cncn4)cc3)nc3ccc(-c4ccc(OC5CC5)nc4)nc23)CC1 [Example 247, N-(4-(1H-1,2,4-triazol-1-yl)benzyl)-6-(6-cyclopropoxy-pyridin-3-yl)-4-(1-methylcyclo-propoxy)pyrido[3,2-d]pyrimidin-2-amine] | 1000 to 10000 | < 100
CCOc1ccc(-c2ccc3nc(N[C@H](C)c4ccc(S(N)(=O)=O)cc4)nc(NCC(F)(F)F)c3n2)cc1S(N)(=O)=O [Example 261, 4-((R)-1-(6-(4-ethoxy-3-(aminosulfonyl)phenyl)-4-(2,2,2-trifluoroethylamino)pyrido[3,2-d]pyrimidin-2-ylamino)ethyl)benzene-sulfonamide] | > 10000 | < 100
COc1ccc(-c2ccc3nc(NCc4cc(C(F)(F)F)cc(S(N)(=O)=O)c4)nc(NCC(F)(F)F)c3n2)cc1S(C)(=O)=O [Example 141, 3-((6-(4-methoxy-3-(methylsulfonyl)phenyl)-4-(2,2,2-trifluoroethylamino)pyrido[3,2-d]pyrimidin-2-ylamino)methyl)-5-(trifluoromethyl)benzene-sulfonamide] | > 10000 | < 100
C[C@@H](Nc1nc(NC2(C(F)(F)F)CC2)c2nc(-c3ccc(N)nc3)ccc2n1)c1ccc(-n2cncn2)cc1 [Example 84, N^2-((R)-1-(4-(1H-1,2,4-triazol-1-yl)phenyl)ethyl)-6-(6-aminopyridin-3-yl)-N^4-(1-(trifluoromethyl)cyclopropyl) pyrido[3,2-d]pyrimidine-2,4-diamine] | 1000 to 10000 | < 100
COc1ccc(-c2ccc3nc(N[C@H](C)c4ccc(S(N)(=O)=O)cc4)nc(NCC(F)(F)F)c3n2)cc1S(C)(=O)=O [Example 145, 4-((R)-1-(6-(4-methoxy-3-(methylsulfonyl)phenyl)-4-(2,2,2-trifluoroethylamino)pyrido[3,2-d]pyrimidin-2-ylamino)ethyl)benzene-sulfonamide] | 1000 to 10000 | 100 to 250
C[C@@H](Nc1nc(NCC(F)(F)F)c2nc(-c3cccc(S(C)(=O)=O)c3)ccc2n1)c1ccc(S(=O)(=O)NC(C)(C)C)cc1 [Example 136, N-tert-butyl-4-((R)-1-(6-(3-(methylsulfonyl)phenyl)-4-(2,2,2-trifluoroethylamino)pyrido[3,2-d]pyrimidin-2-ylamino)ethyl)benzene-sulfonamide] | > 10000 | < 100
COc1ccc(-c2ccc3nc(NCc4cccnc4)nc(NCC(F)(F)F)c3n2)cc1S(C)(=O)=O [Example 166, 6-(4-methoxy-3-(methylsulfonyl)phenyl)-N^2-(pyridin-3-ylmethyl)-N^4-(2,2,2-trifluoroethyl)pyrido [3,2-d]pyrimidine-2,4-diamine] | 1000 to 10000 | < 100
CC1(Oc2nc(NCc3ccc(-n4cncn4)cc3)nc3ccc(-c4cccc(S(C)(=O)=O)c4)nc23)CC1 [Example 189, N-(4-(1H-1,2,4-triazol-1-yl)benzyl)-4-(1-methylcyclo-propoxy)-6-(3-(methylsulfonyl)phenyl)pyrido[3,2-d]pyrimidin-2-amine] | 1000 to 10000 | < 100
COc1ccc(-c2ccc3nc(NCc4ccc(S(N)(=O)=O)cc4)nc(NCC(F)(F)F)c3n2)cc1S(=O)(=O)N1CCOCC1 [Example 227, 4-((6-(4-methoxy-3-(morpholinosulfonyl)phenyl)-4-(2,2,2-trifluoroethylamino)pyrido[3,2-d]pyrimidin-2-ylamino)methyl)benzene-sulfonamide] | 1000 to 10000 | < 100
COc1ccc(-c2ccc3nc(NCc4ccc(-n5cncn5)cc4)nc(NCC(F)(F)F)c3n2)cc1S(N)(=O)=O [Example 237, 5-(2-(4-(1H-1,2,4-triazol-1-yl)benzylamino)-4-(2,2,2-trifluoroethylamino)pyrido [3,2-d]pyrimidin-6-yl)-2-methoxybenzenesulfonamide] | > 10000 | < 100
CS(=O)(=O)c1cccc(-c2ccc3nc(NCc4ccc(-n5cncn5)cc4)nc(O[C@@H]4C[C@@H]5C[C@@H]5C4)c3n2)c1 [Example 194, N-(4-(1H-1,2,4-triazol-1-yl)benzyl)-4-((1S,3r,5R)-bicyclo[3.1.0]hexan-3-yloxy)-6-(3-(methylsulfonyl)phenyl) pyrido[3,2-d]pyrimidin-2-amine] | 1000 to 10000 | < 100
CC(C)(C)Oc1nc(NCc2ccc(-n3cncn3)cc2)nc2ccc(-c3cccc(S(C)(=O)=O)c3)nc12 [Example 197, N-(4-(1H-1,2,4-triazol-1-yl)benzyl)-4-tert-butoxy-6-(3-(methylsulfonyl)phenyl)pyrido [3,2-d]pyrimidin-2-amine] | > 10000 | < 100
